Experimental data from PMC11672125 (JACS Au, 2024).

Molecular target: Brd4 (Homo sapiens, UniProt O60885)
Experiment: Brd4 degradation by immunoblotting in PC-3 cells
Assay type: cell-based
Conditions: siRNA-VHL 50 nM 72 h, then 30 nM SHD913 for 4 h

siVHL: siRNA against VHL; sense sequence 5′- GGCUCAACUUCGACGGCGA −3′ (antisense UCGCCGUCGAAGUUGAGCC; chemistry not given here)
effect of siVHL pretreatment on SHD913-mediated Brd4 degradation: reversed SHD913-mediated Brd4 degradation
